Source: patent US9555050B2 (BIOGEN MA INC., priority 2012, dated 2017)

Target: T1, Human ATX protein (Homo sapiens, UniProt Q13822)
T1 construct: made in house
Assay: ATX biochemical FRET assay with FS-3 substrate
Settings: FS-3 substrate 2 μM, ATX 1.0 μg/mL, 30 min preincubation, 2 hours at room temperature
Source text: ATX (Autotaxin) is a 125 KDa glycoprotein with lysophospholipase D (LPLD) activity that generates the bioactive lipid lysophosphatidic acid (LPA) from lysophosphatidylcholine (LPC). The ATX biochemical assay utilizes a FRET (fluorescence resonance energy transfer) technology platform. The fluorescence signal of FRET substrate FS-3 is quenched due to intra-molecular FRET of a fluorophore to a non-fluorescing quencher (Ferguson, C. G., et al., Org Lett. 2006 May 11; 8(10): 2023-2026, which is incorporated by reference in its entirety). ATX catalyzes the hydrolysis of the substrate which separates the dabsyl quencher from the fluorescein reporter, which becomes fluorescent. The reaction is monitored by a SpectraMax M5 (Molecular Devices, Sunnyvale, Calif.) with at excitation wavelength 485 nm and emission wavelength […].
Fatty acid free-BSA (Sigma A8806): 10 mg/mL in H2O, stored at 4° C.
2×ATX assay buffer: 100 mM Tris, 280 mM NaCl, 10 mM KCl, 2 mM CaCl2, 2 mM MgCl2, pH 7.4.
Human ATX protein: expressed and purified in house. Stored at −80° C.
Substrate FS-3 (Echelon, L-2000): 100 μg in 77.74.L H2O (1 mM stock), stored at −20° C.
384-well flat bottom plates—Corning #3575.
Compound dilution—All compounds were provided at 10 mM in 100% DMSO. In the first well, 2 μL of 10 mM compound was added to 78 μL of DMSO (1:40 dilution). In subsequent wells 3-fold dilution (total 10 dilutions) were performed.
1×ATX assay buffer was made up with a final concentration of 1 mg/mL fatty acid free-BSA using 2×ATX assay buffer, 10 mg/ml fatty acid free-BSA and ddH2O.
ATX protein was diluted with 1×ATX assay buffer to a concentration of 1.32 μg/mL (1.32×). 38 μL was added per well to the assay plate. The final concentration of ATX in the reaction as 1.0 μg/mL.
2 μL per well of compounds was transferred to provide the desired concentration. The plate was centrifuged, then incubated at room temperature for 30 minutes on the shaker.
FS-3 was diluted with 1×ATX assay buffer to a concentration of FS-3 of 10 μM (5×). Then, 10 μL was added per well to the assay plate. The final concentration of FS-3 in the reaction was 2 μM. The plate was centrifuged. The plate was kept shaking at room temperature for 2 hours. Because FS-3 substrate is light sensitive, plates were kept covered and protected from light.
Fluorescence was measured using SpectraMax M5 (excitation at 485 nm/emission at 538 nm, top read).

**Q.** How did the IC50 turn out when `CC1(C)C(NC(c2ccc3c(C(F)(F)F)c(O[C@H]4CC[C@@H](C)CC4)ccc3c2)C2CCCCC2)CC1C(=O)O` (stereo partly shown) [Example 42] was run?
**A.** Its IC50 is no more than 500 nM.

**Q.** With `C[C@H](c1ccc2c(C(F)(F)F)c(O[C@H]3CC[C@@H](C)CC3)ccc2c1)N1CCC[C@H](CC(=O)O)C1` [Example 96, 2-((3R)-1-((R)-1-(6-((cis-4-Methylcyclohexyl)oxy)-5-(trifluoromethyl)naphthalen-2-yl)ethyl)piperidin-3-yl)acetic acid] as the compound, how does the IC50 read?
**A.** Its IC50 is no more than 100 nM.

**Q.** With `CC(c1ccc2c(C(F)(F)F)c(O[C@H]3CC[C@@H](C)CC3)ccc2c1)N1CCC[C@H](CC(=O)O)C1` (stereo partly drawn) [Example 51, 2-((3R)-1-(1-(6-((cis-4-Methylcyclohexyl)oxy)-5-(trifluoromethyl)naphthalen-2-yl)ethyl)piperidin-3-yl)acetic acid] as the compound, how does the IC50 read?
**A.** The IC50 was no more than 100 nM.

**Q.** With `O=C(O)C[C@H]1CN(Cc2ccc3c(C(F)(F)F)c(O[C@H]4CC[C@@H](C(F)(F)F)CC4)ccc3c2)CCO1` [Example 82, 2-((S)-4-((2-(cis-4-(trifluoromethyl)cyclohexyloxy)-1-(trifluoromethyl)naphthalen-6-yl)methyl)morpholin-2-yl)acetic acid] as the compound, how does the IC50 read?
**A.** The IC50 was no more than 250 nM.

**Q.** Which IC50 does the source give for `O=C(O)CC1CN(Cc2ccc3c(C(F)(F)F)c(O[C@H]4CC[C@@H](C(F)(F)F)CC4)ccc3c2)C1` [Example 62, 2-(1-((5-(trifluoromethyl)-6-(4-cis-(trifluoromethyl)cyclohexyloxy)naphthalene-2-yl)methyl)azetidine-3-yl)acetic acid] here?
**A.** The IC50 was no more than 250 nM.

**Q.** `O=C(O)c1ccc(CNCc2ccc3c(C(F)(F)F)c(O[C@H]4CC[C@@H](C(F)(F)F)CC4)ccc3c2)nc1` [Example 69, 6-((((5-(trifluoromethyl)-6-((cis)-4-(trifluoromethyl)cyclohexyloxy)naphthalene-2-yl)methyl)amino)methyl)nicotinic acid] was tested. Which IC50 did it give?
**A.** The IC50 was no more than 250 nM.

**Q.** For `C[C@H]1CC[C@@H](Oc2ccc3cc(CN4CCC(C(=O)O)CC4)ccc3c2C(F)F)CC1` [Example 13, 1-((5-(Difluoromethyl)-6-((cis-4-methylcyclohexyl)oxy)naphthalen-2-yl)methyl)piperidine-4-carboxylic acid], which IC50 is on record?
**A.** Its IC50 is no more than 100 nM.

**Q.** `CC[C@@H](c1ccc2c(C(F)(F)F)c(O[C@H]3CC[C@@H](C)CC3)ccc2c1)N1CCC[C@H](CC(=O)O)C1` [Example 59, 2-((3R)-1-((S)-1-(6-((cis-4-Methylcyclohexyl)oxy)-5-(trifluoromethyl)naphthalen-2-yl)propyl)piperidin-3-yl)acetic acid] was tested. Which IC50 did it give?
**A.** Its IC50 is no more than 100 nM.

**Q.** With `C[C@H](c1ccc2c(C(F)F)c(O[C@H]3CC[C@@H](C)CC3)ccc2c1)N1CCC[C@H](CC(=O)O)C1` [Example 92, 2-((3R)-1-((R)-1-(6-((cis-4-Methylcyclohexyl)oxy)-5-(difluoromethyl)naphthalen-2-yl)ethyl)piperidin-3-yl)acetic acid] as the compound, how does the IC50 read?
**A.** Its IC50 is no more than 100 nM.

**Q.** Which IC50 does the source give for `CCC(c1ccc2c(C(F)(F)F)c(O[C@H]3CC[C@@H](C(F)(F)F)CC3)ccc2c1)N1CCC[C@@H](CC(=O)O)C1` (stereo partly drawn) [Example 89, 2-((S)-1-(1-(2-(cis-4-(trifluoromethyl)cyclohexyloxy)-1-(trifluoromethyl)naphthalen-6-yl)propyl)piperidin-3-yl)acetic acid] here?
**A.** Its IC50 is no more than 100 nM.

**Q.** With `CC1CN(Cc2ccc3c(C(F)(F)F)c(O[C@H]4CC[C@@H](C(F)(F)F)CC4)ccc3c2)CCC1C(=O)O` (relative stereo) [Example 74, 1-((5-(trifluoromethyl)-6-((cis-4-(trifluoromethyl)cyclohexyl)oxy)-naphthalen-2-yl)methyl)-3-methylpiperidine-4-carboxylic acid] as the compound, how does the IC50 read?
**A.** The IC50 was no more than 500 nM.

**Q.** How did the IC50 turn out when `CC1(C(=O)O)CCN(Cc2ccc3c(C(F)(F)F)c(O[C@H]4CC[C@@H](C(F)(F)F)CC4)ccc3c2)CC1` [Example 30, 4-methyl-1-((5-(trifluoromethyl)-6-((cis)-4-(trifluoromethyl)cyclohexyloxy)naphthalen-2-yl)methyl)piperidine-4-carboxylic acid] was run?
**A.** Its IC50 is no more than 500 nM.

**Q.** For `CC[C@H]1CC[C@@H](Oc2ccc3cc(C(C)N4CCC[C@H](CC(=O)O)C4)ccc3c2C(F)(F)F)CC1` (stereo partly drawn) [Example 6, 2-((3R)-1-(1-(6-((cis-4-ethylcyclohexyl)oxy)-5-(trifluoromethyl)naphthalen-2-yl)ethyl)piperidin-3-yl)acetic acid], which IC50 is on record?
**A.** Its IC50 is no more than 100 nM.

**Q.** How did the IC50 turn out when `O=C(O)[C@H]1CC[C@H](CNCc2ccc3c(C(F)F)c(O[C@H]4CC[C@@H](C(F)(F)F)CC4)ccc3c2)CC1` [Example 34, (trans)-4-(((5-(difluoromethyl)-6-((cis)-4-(trifluoromethyl)cyclohexyloxy)naphthalen-2-yl)methylamino)methyl)cyclohexanecarboxylic acid] was run?
**A.** The IC50 was no more than 250 nM.

**Q.** With `CC[C@H](c1ccc2c(C(F)F)c(O[C@H]3CC[C@@H](C)CC3)ccc2c1)N1CCC[C@H](CC(=O)O)C1` [Example 94, 2-((3R)-1-((R)-1-(6-((cis-4-Methylcyclohexyl)oxy)-5-(difluoromethyl)naphthalen-2-yl)propyl)piperidin-3-yl)acetic acid] as the compound, how does the IC50 read?
**A.** Its IC50 is no more than 100 nM.

**Q.** How did the IC50 turn out when `O=C(O)C[C@H]1CCCN(Cc2ccc3c(C(F)(F)F)c(OC4CCC(F)(F)CC4)ccc3c2)C1` [Example 4, (R)-2-(1-((6-((4,4-difluorocyclohexyl)oxy)-5-(trifluoromethyl)naphthalen-2-yl)methyl)piperidin-3-yl)acetic acid] was run?
**A.** Its IC50 is no more than 500 nM.

**Q.** For `C[C@H]1CC[C@@H](Oc2ccc3cc(CN4CCCC(CC(=O)O)C4)ccc3c2C(F)(F)F)CC1` (stereo partly drawn) [Example 9, 2-(1-((6-((cis-4-methylcyclohexyl)oxy)-5-(trifluoromethyl)naphthalen-2-yl)methyl)piperidin-3-yl)acetic acid], which IC50 is on record?
**A.** The IC50 was no more than 250 nM.

**Q.** `O=C(O)C1CCC(NCc2ccc3c(C(F)(F)F)c(O[C@H]4CC[C@@H](C(F)(F)F)CC4)ccc3c2)C1` (single isomer, unassigned) [Example 3b, 3-(((5-(trifluoromethyl)-6-((cis-4-(trifluoromethyl)cyclohexyl)oxy)-naphthalen-2-yl)methyl)amino)cyclopentanecarboxylic acid] was tested. Which IC50 did it give?
**A.** The IC50 was no more than 500 nM.

**Q.** `O=C(O)CC1CCN(Cc2ccc3c(C(F)(F)F)c(O[C@H]4CC[C@@H](C(F)(F)F)CC4)ccc3c2)CC1` [Example 65, 1-((5-(trifluoromethyl)-6-((cis-4-(trifluoromethyl)cyclohexyl)oxy)-naphthalen-2-yl)methyl)piperidine-4-acetic acid] was tested. Which IC50 did it give?
**A.** Its IC50 is no more than 250 nM.

**Q.** How did the IC50 turn out when `CC[C@@H](c1ccc2c(C(F)F)c(O[C@H]3CC[C@@H](C)CC3)ccc2c1)N1CCC[C@H](CC(=O)O)C1` [Example 93, 2-((3R)-1-((S)-1-(6-((cis-4-Methylcyclohexyl)oxy)-5-(difluoromethyl)naphthalen-2-yl)propyl)piperidin-3-yl)acetic acid] was run?
**A.** The IC50 was no more than 100 nM.

**Q.** For `CC(C)C(NC1CC(C(=O)O)C1(C)C)c1ccc2c(C(F)(F)F)c(O[C@H]3CC[C@@H](C(F)(F)F)CC3)ccc2c1` (relative stereo) [Example 39, 2,2-dimethyl-3-(2-methyl-1-(5-(trifluoromethyl)-6-((cis)-4-(trifluoromethyl)cyclohexyloxy)naphthalen-2-yl)propylamino)cyclobutanecarboxylic acid], which IC50 is on record?
**A.** Its IC50 is no more than 250 nM.

**Q.** Which IC50 does the source give for `CN(Cc1ccc2c(C(F)(F)F)c(O[C@H]3CC[C@@H](C(F)(F)F)CC3)ccc2c1)C[C@H]1CC[C@H](C(=O)O)CC1` [Example 28, (trans)-4-((methyl((5-(trifluoromethyl)-6-((cis)-4-(trifluoromethyl)cyclohexyloxy)naphthalen-2-yl)methyl)amino)methyl)cyclohexanecarboxylic acid] here?
**A.** The IC50 was no more than 500 nM.

**Q.** For `O=C(O)[C@H]1CC[C@H](CNCc2ccc3c(C(F)(F)F)c(O[C@H]4CC[C@@H](C(F)(F)F)CC4)ccc3c2)CC1` [Example 25, (trans)-4-(((5-(trifluoromethyl)-6-((cis)-4-(trifluoromethyl)cyclohexyloxy)naphthalen-2-yl)methylamino)methyl)cyclohexanecarboxylic acid], which IC50 is on record?
**A.** Its IC50 is no more than 250 nM.

**Q.** With `O=C(O)c1ccc(CNC(=O)c2ccc3c(C(F)(F)F)c(O[C@H]4CC[C@@H](C(F)(F)F)CC4)ccc3c2)nc1` [Example 23, 6-((5-(trifluoromethyl)-6-((cis)-4-(trifluoromethyl)cyclohexyloxy)-2-naphthamido)methyl)nicotinic acid] as the compound, how does the IC50 read?
**A.** Its IC50 is no more than 500 nM.

**Q.** How did the IC50 turn out when `CCC(c1ccc2c(C(F)(F)F)c(O[C@H]3CC[C@@H](CC)CC3)ccc2c1)N1CCC[C@H](CC(=O)O)C1` (stereo partly drawn) [Example 7, 2-((3R)-1-(1-(6-((cis-4-ethylcyclohexyl)oxy)-5-(trifluoromethyl)naphthalen-2-yl)propyl)piperidin-3-yl)acetic acid] was run?
**A.** The IC50 was no more than 100 nM.
